# In patent US20250009819A1, “NOVEL PROBIOTICS AND USE THEREOF” (PBLBIOLAB CO., LTD., priority 2021, published 2025):
# How the values were obtained:
# gut microbiota = test: LPS production in gut microbiota (ELISA); assay type: cell-based; conditions: human feces culture; lactic acid bacteria 1×10^6 CFU/mL; anaerobic 24 hr
# Procedure: Fresh human feces were suspended in anaerobic medium (GAM, Nissui Pharmaceutical Co., Ltd., Japan) and allowed to stand for 10 min. The supernatant was diluted with 10,000-fold anaerobic medium, 0.05 mL of the dilution was transplanted into 5 mL of freshly made anaerobic medium, and lactic acid bacteria (1×10^6 CFU/mL) were implanted and incubated anaerobically for 24 hr.
# [1] = tested on: animals with intestinal and brain diseases induced by TNBS; test: Animals with intestinal and brain diseases induced by TNBS: cognitive improvement, hippocampus; assay type: in vivo, C57BL/6 male mice; conditions: for Cognitive function Exploration (%) / Cognitive function Spont. alteration (%) / Concentration in the hippocampus IFN-γ / Concentration in the hippocampus IL-10 / Concentration in the hippocampus TNF-α: TNBS-treated mice, 1×10^9 CFU/mouse or sulfasalazine 50 mg/kg orally once a day for 5 days; for cognitive impairment caused by TNBS: result in words, summary of Table 18
# Procedure: Indicators of this supernatant were measured using an ELISA kit (Ebioscience). […] The animal's movements were recorded, and reported as arm entries when the animal entered the arm with its hind paw, and the animal's movement was represented by an alternation, which was defined as one alternation when the animal passed through the three arms in succession. The amount of spontaneous alternation behavior was expressed as a percentage between the actual number of alternations and the maximum possible number of alternations (i.e., the total number of […] minus 2). The experiment was conducted in a box (40×40×40 cm) made so that the outside could not be seen from the inside. Two objects (A, A′) of the same shape and size were fixedly disposed in a box and the mouse was relocated to start from the center of the box. Then, the number of times the mouse made contact with the two objects was recorded for 10 minutes. After 24 hours, one of the two objects was replaced with a new object (A, B). Then, one original object and one new object were prepared, and the animal's exploration time was measured. C57BL/6 male mice (5 weeks old, 19-21 g) were divided (6 mice in each group) and acclimatized to the laboratory for 1 week. […] Meanwhile, the normal group was orally administered with 0.1 ml of physiological saline. From the next day, the mice were orally administered once a day for 5 days with lactic acid bacteria as a test sample suspended in physiological saline solution at a concentration of 1×10^9 CFU per mouse (NK210 alone (LR): 1×10^9 CFU/mouse, NK219 alone (BL): 1×10^9 CFU/mouse, NK209 alone (LL): 1×10^9 CFU/mouse, combined (MX, 210+219): NK210, 8×10^8 CFU/mouse and NK219, 2×10^8 CFU/mouse, combined (MX, 209+219) NK209, 8×10^8 CFU/mouse and NK219, 2×10^8 CFU/mouse, LR+BL+LL: NK210, 4×10^8 CFU/mouse, NK219, 2×10^8 CFU/mouse, and NK209, 4×10^8 CFU/mouse, heat treated (H—), respectively: 1×10^9 CFU/mouse). […] The day following the conclusion of sample administration, the experimental animals were sacrificed, and samples from the brain hippocampus, colon, and spleen were collected. In the Hippocampus, inflammatory indicators, such as TNF-α and IL-10, were measured using ELISA. In the colon, intestinal length and inflammatory indicators, such as TNF-α and IL-10, were measured. In the spleen, Th1 cells and Treg cells were measured by FACS (Fluorescence-Activated Cell Sorting).
# [2] = tested on: animals with intestinal and brain diseases induced by TNBS; test: Animals with intestinal and brain diseases induced by TNBS: improvement effect in colon; assay type: in vivo, C57BL/6 male mice; conditions: TNBS-treated mice, 1×10^9 CFU/mouse or sulfasalazine 50 mg/kg orally once a day for 5 days
# Procedure: Then, the supernatant was obtained by centrifugation for 10 minutes at 4° C. and 10,000 g. A volume of 50 μl of the supernatant was added to 0.95 mk of reaction solution (containing 1.6 mM tetramethyl benzidine and 0.1 mM H2O2), reacted at 37° C., and absorbance was monitored over time at 650 nm. […] Indicators of this supernatant were measured using an ELISA kit (Ebioscience). C57BL/6 male mice (5 weeks old, 19-21 g) were divided (6 mice in each group) and acclimatized to the laboratory for 1 week. […] Meanwhile, the normal group was orally administered with 0.1 ml of physiological saline. From the next day, the mice were orally administered once a day for 5 days with lactic acid bacteria as a test sample suspended in physiological saline solution at a concentration of 1×10^9 CFU per mouse (NK210 alone (LR): 1×10^9 CFU/mouse, NK219 alone (BL): 1×10^9 CFU/mouse, NK209 alone (LL): 1×10^9 CFU/mouse, combined (MX, 210+219): NK210, 8×10^8 CFU/mouse and NK219, 2×10^8 CFU/mouse, combined (MX, 209+219) NK209, 8×10^8 CFU/mouse and NK219, 2×10^8 CFU/mouse, LR+BL+LL: NK210, 4×10^8 CFU/mouse, NK219, 2×10^8 CFU/mouse, and NK209, 4×10^8 CFU/mouse, heat treated (H—), respectively: 1×10^9 CFU/mouse). […] The day following the conclusion of sample administration, the experimental animals were sacrificed, and samples from the brain hippocampus, colon, and spleen were collected. In the Hippocampus, inflammatory indicators, such as TNF-α and IL-10, were measured using ELISA. In the colon, intestinal length and inflammatory indicators, such as TNF-α and IL-10, were measured. In the spleen, Th1 cells and Treg cells were measured by FACS (Fluorescence-Activated Cell Sorting).
# TNF-α = TNF-α expression in LPS-treated macrophages (ELISA); assay type: cell-based, C57BL/6 mice; conditions: macrophages treated with lactic acid bacteria and LPS for 24 hours
# How it was run: (§1)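 Peritoneal macrophages were elicited in male C57BL/6 mice (6 weeks) by i.p. 4% thioglycolate and harvested 96 h later. Cells at 0.5×10^6/well were treated with lactic acid bacteria plus LPS for 24 h. Cytokines in the supernatant were quantified by ELISA.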
# IL-10 = IL-10 expression in LPS-treated macrophages (ELISA); assay type: cell-based, C57BL/6 mice; conditions: macrophages treated with lactic acid bacteria and LPS for 24 hours
# How it was run: as §1
Substance,Gut microbiota Inhibition of LPS production (gut microbiota),Cognitive function Exploration (%) [1] [%],Cognitive function Spont. alteration (%) [1] [%],Concentration in the hippocampus IFN-γ [1] [pg/mg],Concentration in the hippocampus IL-10 [1] [pg/mg],Concentration in the hippocampus TNF-α [1] [pg/mg],cognitive impairment caused by TNBS [1],Colon IFN-γ [2] [pg/mg],Colon IL-10 [2] [pg/mg],Colon MPO [2] [μUnit/mg],Colon TNF-α [2] [pg/mg],Colon length (cm) [2] [cm],Macrophage Inhibition of TNF-α expression (TNF-α),Macrophage Induction of IL-10 expression (IL-10)
Bifidobacterium longum NK219,+++ (very strongly (+++; >90%)),75.37,65.32,25.02,40.26,11.93,improved,7.79,17.20,16.24,20.57,4.82,+++ (very strongly (+++; >90%)),+++ (very strongly (+++; >90%))
Lactobacillus rhamnosus NK210,+++ (very strongly (+++; >90%)),74.25,62.45,26.28,38.64,12.14,improved,8.42,15.31,18.43,23.84,4.63,++ (strongly (++; >60-90%)),+++ (very strongly (+++; >90%))
Lactococcus lactis NK209,+ (weakly (+; >20-60%)),70.20,58.8,30.81,35.53,13.54,–,7.89,17.10,15.65,20.12,4.89,+ (weakly (+; >20-60%)),+ (weakly (+; >20-60%))
